Legend:
Format in all cases: biochemical
[1] = biological target: T1, cathepsin B (Homo sapiens, UniProt P07858); assay: Cathepsin B enzyme inhibition in vitro (kinetic fluorescence assay); details: cathepsin B isolated from human liver vs calpain I
T1 construct: cathepsin B—isolated from human liver (Calbiochem #219362); purchased Calbiochem 219362; host or cells: human liver (tissue-derived)
Protocol: (§1) The following solutions and buffers were employed: • HBS (for 40 ml): 800 μl M HEPES; 2.16 ml 100 mM KCl; 4.8 ml 1M NaCl; 3.59 ml 5% glucose; 60 μl μM MgSO4; 400 μl 100 mM Na pyruvate, 28.19 ml water; pH 7.2-7.5. • lysis buffer (for 20 ml): 400 μl M Tris pH 8.2; 2.74 ml 1M NaCl; 520 μl 0.5M EDTA; 2 ml 10% triton X-100; 0.8 ml (=1:25) CompletePlus (1 tablet/2 ml H2O); 200 μl 100 mM Pefabloc; 13.34 ml water, pH 8.2. • TBST (10×) (for 1 l): 100 mM Tris (12.1 g); 1.5M NaCl (87 g); 1% Tween 20 (10 g), adjusted to pH 8. I Enzyme Inhibition In Vitro: • Testing for blockade of the corresponding enzymic activities was carried out by means of kinetic fluorescence assays (excitation 390 nm, emission 460 nm). • Apparent Ki values were calculated from the experimentally determined IC50 values by the Cheng-Prussoff relation assuming a reversible competitive enzyme inhibition. The Km values of the substrates used under the assay conditions indicated above were: 90 μM (Z-Phe-Arg-AMC, cathepsin B), 10 μM (Z-Gly-Pro-Arg-AMC, cathepsin K), 2 μM (Z-Phe-Arg-AMC, cathepsin L), and 30 μM (Z-Val-Val-Arg-AMC, cathepsin S). • The indicated Ki values are averages of the inhibition constants calculated on the basis of 2 to 4 independent dose-effect plots.
(§2) The following assays were used: • 1. Calpain I: • 20 nM calpain-I—isolated from human erythrocytes (Calbiochem #208713), 100 μM Suc-Leu-Tyr-AMC (Bachem #1-1355) as substrate in buffer with 62 mM imidazole, 0.3 mM CaCl2, 0.10% CHAPS, 0.05% BSA, 1 mM DTT at pH 7.3 and room temperature. • 2. Cathepsin B: • 0.25 nM cathepsin B—isolated from human liver (Calbiochem #219362), 100 μM Z-Phe-Arg-AMC (Bachem #I-1160) as substrate 50 mM MES, 2 mM EDTA, 0.05% Brij 35, 2.5 mM L-cysteine, pH 6.0, room temperature. • 3. Cathepsin K: • 3 nM cathepsin K—activated from recombinant human procathepsin K from E. coli (Calbiochem #342001), 10 μM Z-Gly-Pro-Arg-AMC (Biomol #P-142) as substrate in 50 mM MES, 2 mM EDTA, 0.05% Brij 35, 2.5 mM L-cysteine, pH 6.0, room temperature. • 4. Cathepsin L: • 1 nM cathepsin L—isolated from human liver (Calbiochem #219402), 2 μM Z-Phe-Arg-AMC (Bachem #1-1160) as substrate in 50 mM MES, 2 mM EDTA, 0.05% Brij 35, 2.5 mM L-cysteine, pH 6.0, room temperature. • 5. Cathepsin S: • 0.5 nM recombinant human cathepsin S from E. coli (Calbiochem #219343), 20 μM Z-Val-Val-Arg-AMC (Bachem #1-1540) as substrate in 50 mM MES, 2 mM EDTA, 0.05% Brij 35, 2.5 mM L-cysteine, pH 6.0, room temperature. • The results of the in vitro determination are indicated in Table 1. The following abbreviations are used in Table 1: • The “Calpain activity” column, ++ stands for a calpain Ki (Ki(calpain)) of ≦40 nM and + means: 40 nM<Ki(Calpain)≦100 nM. • The “Sel. cat. B” column indicates the Ki(cathepsin B)/Ki(calpain) ratio. In this connection, ++ means a Ki(cathepsin B)/Ki(calpain) ratio of ≧30 and + means 10≦Ki(cathepsin B)/Ki(calpain)<30. • The “Sel. cat. K” column indicates the Ki(cathepsin K)/Ki(calpain) ratio. In this connection, ++ means a Ki(cathepsin K)/Ki(calpain) ratio of ≧30 and + means 10≦Ki(cathepsin K)/Ki(calpain)<30. • The “Sel. cat. L” column indicates the Ki(cathepsin L)/Ki(calpain) ratio. In this connection, ++ means a Ki(cathepsin L)/Ki(calpain) ratio of ≧50 and + means 30≦Ki(cathepsin L)/Ki(calpain)<50. • The “Sel. cat. S” column indicates the Ki(cathepsin S)/Ki(calpain) ratio. In this connection, ++ means a Ki(cathepsin S)/Ki(calpain) ratio of ≧100 and + means 50≦Ki(cathepsin S)/Ki(calpain)<100.

[2] = biological target: T2, cathepsin S (Homo sapiens, UniProt P25774); assay: Cathepsin S enzyme inhibition in vitro (kinetic fluorescence assay); details: recombinant human cathepsin S vs calpain I
T2 construct: purchased Calbiochem 219343; host or cells: E. coli
Protocol: as §1, §2

[3] = biological target: T3, cathepsin L (Homo sapiens, UniProt P07711); assay: Cathepsin L enzyme inhibition in vitro (kinetic fluorescence assay); details: cathepsin L isolated from human liver vs calpain I
T3 construct: cathepsin L—isolated from human liver (Calbiochem #219402); purchased Calbiochem 219402; host or cells: human liver (tissue-derived)
Protocol: as §1, §2

T2 sequence (P25774 115-331): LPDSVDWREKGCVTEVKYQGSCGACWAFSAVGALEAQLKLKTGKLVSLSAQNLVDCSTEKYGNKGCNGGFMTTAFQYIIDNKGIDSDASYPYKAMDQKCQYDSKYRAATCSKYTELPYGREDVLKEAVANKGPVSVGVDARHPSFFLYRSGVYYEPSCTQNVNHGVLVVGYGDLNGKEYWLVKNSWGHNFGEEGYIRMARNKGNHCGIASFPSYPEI
T3 sequence (P07711 114-333): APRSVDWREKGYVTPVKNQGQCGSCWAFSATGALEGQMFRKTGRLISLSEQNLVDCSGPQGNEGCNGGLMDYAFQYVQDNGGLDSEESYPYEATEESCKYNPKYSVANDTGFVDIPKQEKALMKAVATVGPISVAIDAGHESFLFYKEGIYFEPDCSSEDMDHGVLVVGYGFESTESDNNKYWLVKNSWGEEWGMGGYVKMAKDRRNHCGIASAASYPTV

## CCCCC(NC(=O)c1cc(Cl)cnc1-n1ccc(-c2ccccc2)n1)C(=O)C(N)=O (stereo not shown) [Example 28, N-{1-[Amino(oxo)acetyl]pentyl}-5-chloro-2-(3-phenyl-1H-pyrazol-1-yl)nicotinamide]
[1]
  Sel cat. B: Ki(cathepsin B)/Ki(calpain) ratio: + (+ means 10≦Ki(cathepsin B)/Ki(calpain)<30)

## CC(C)CC(NC(=O)c1cc(Cl)cnc1-n1ccc(-c2ccccc2)n1)C(=O)C(N)=O (stereo not shown) [Example 32, N-{1-[Amino(oxo)acetyl]-3-methylbutyl}-5-chloro-2-(3-phenyl-1H-pyrazol-1-yl)nicotinamide]
[1]
  Sel cat. B: Ki(cathepsin B)/Ki(calpain) ratio: + (+ means 10≦Ki(cathepsin B)/Ki(calpain)<30)

## CCCCC(NC(=O)c1cccnc1-n1ccc(-c2ccc(N3CCOCC3)cc2)n1)C(=O)C(N)=O (stereo not shown) [Example 33, N-{1-[Amino(oxo)acetyl]pentyl}-2-[3-(4-morpholin-4-ylphenyl)-1H-pyrazol-1-yl]nicotinamide]
[2]
  Sel cat. S: Ki(cathepsin S)/Ki(calpain) ratio: + (+ means 50≦Ki(cathepsin S)/Ki(calpain)<100)
[1]
  Sel cat. B: Ki(cathepsin B)/Ki(calpain) ratio: + (+ means 10≦Ki(cathepsin B)/Ki(calpain)<30)

## NC(=O)C(=O)C(Cc1cccs1)NC(=O)c1cccnc1-n1ccc(-c2ccccc2)n1 (stereo not shown) [Example 40, N-[3-Amino-2,3-dioxo-1-(2-thienylmethyl)propyl]-2-(3-phenyl-1H-pyrazol-1-yl)pyridine-3-carboxamide]
[3]
  Sel cat. L: Ki(cathepsin L)/Ki(calpain) ratio: ++ (++ means a Ki(cathepsin L)/Ki(calpain) ratio of ≧50)
[2]
  Sel cat. S: Ki(cathepsin S)/Ki(calpain) ratio: ++ (++ means a Ki(cathepsin S)/Ki(calpain) ratio of ≧100)
[1]
  Sel cat. B: Ki(cathepsin B)/Ki(calpain) ratio: + (+ means 10≦Ki(cathepsin B)/Ki(calpain)<30)

## Cc1cc(-c2ccccc2)nn1-c1ncccc1C(=O)NC(Cc1ccccc1)C(=O)C(N)=O (stereo not shown) [Example 61, N-(3-Amino-1-benzyl-2,3-dioxopropyl)-2-(5-methyl-3-phenyl-1H-pyrazol-1-yl)nicotinamide]
[2]
  Sel cat. S: Ki(cathepsin S)/Ki(calpain) ratio: ++ (++ means a Ki(cathepsin S)/Ki(calpain) ratio of ≧100)
[1]
  Sel cat. B: Ki(cathepsin B)/Ki(calpain) ratio: + (+ means 10≦Ki(cathepsin B)/Ki(calpain)<30)

## NC(=O)C(=O)C(Cc1ccccc1)NC(=O)c1cccnc1-n1ccc(-c2ccc(N3CCCCC3)cc2)n1 (stereo not shown) [Example 64, N-(3-Amino-1-benzyl-2,3-dioxopropyl)-2-[3-(4-piperidin-1-ylphenyl)-1H-pyrazol-1-yl]nicotinamide]
[2]
  Sel cat. S: Ki(cathepsin S)/Ki(calpain) ratio: ++ (++ means a Ki(cathepsin S)/Ki(calpain) ratio of ≧100)
[1]
  Sel cat. B: Ki(cathepsin B)/Ki(calpain) ratio: + (+ means 10≦Ki(cathepsin B)/Ki(calpain)<30)

## Cc1cn(-c2ncccc2C(=O)NC(Cc2ccccc2)C(=O)C(N)=O)nc1-c1ccccc1 (stereo not shown) [Example 84, N-(3-Amino-1-benzyl-2,3-dioxopropyl)-2-(4-methyl-3-phenyl-1H-pyrazol-1-yl)nicotinamide]
[3]
  Sel cat. L: Ki(cathepsin L)/Ki(calpain) ratio: ++ (++ means a Ki(cathepsin L)/Ki(calpain) ratio of ≧50)
[2]
  Sel cat. S: Ki(cathepsin S)/Ki(calpain) ratio: ++ (++ means a Ki(cathepsin S)/Ki(calpain) ratio of ≧100)
[1]
  Sel cat. B: Ki(cathepsin B)/Ki(calpain) ratio: + (+ means 10≦Ki(cathepsin B)/Ki(calpain)<30)

## NC(=O)C(=O)C(Cc1ccc(Br)cc1)NC(=O)c1cccnc1-n1ccc(-c2ccccc2)n1 (stereo not shown) [Example 122, N-{3-Amino-1-[(4-bromophenyl)methyl]-2,3-dioxopropyl}-2-(3-phenyl-1H-pyrazol-1-yl)pyridine-3-carboxamide]
[3]
  Sel cat. L: Ki(cathepsin L)/Ki(calpain) ratio: ++ (++ means a Ki(cathepsin L)/Ki(calpain) ratio of ≧50)
[2]
  Sel cat. S: Ki(cathepsin S)/Ki(calpain) ratio: ++ (++ means a Ki(cathepsin S)/Ki(calpain) ratio of ≧100)
[1]
  Sel cat. B: Ki(cathepsin B)/Ki(calpain) ratio: ++ (++ means a Ki(cathepsin B)/Ki(calpain) ratio of ≧30)

## CC(C)c1ccc2c(c1)-c1nn(-c3ncccc3C(=O)NC(Cc3ccccc3)C(=O)C(N)=O)cc1CO2 (stereo not shown) [Example 144, N-[3-Amino-2,3-dioxo-1-(phenylmethyl)propyl]-2-[8-(1-methylethyl)chromeno[4,3-c]pyrazol-2(4H)-yl]pyridine-3-carboxamide]
[3]
  Sel cat. L: Ki(cathepsin L)/Ki(calpain) ratio: ++ (++ means a Ki(cathepsin L)/Ki(calpain) ratio of ≧50)
[2]
  Sel cat. S: Ki(cathepsin S)/Ki(calpain) ratio: ++ (++ means a Ki(cathepsin S)/Ki(calpain) ratio of ≧100)
[1]
  Sel cat. B: Ki(cathepsin B)/Ki(calpain) ratio: + (+ means 10≦Ki(cathepsin B)/Ki(calpain)<30)

## NC(=O)C(=O)C(Cc1ccccc1)NC(=O)c1cccnc1-n1ccc(-c2cccc3cnccc23)n1 (stereo not shown) [Example 156, N-[3-Amino-2,3-dioxo-1-(phenylmethyl)propyl]-2-(3-isoquinolin-5-yl-1H-pyrazol-1-yl)pyridine-3-carboxamide]
[3]
  Sel cat. L: Ki(cathepsin L)/Ki(calpain) ratio: + (+ means 30≦Ki(cathepsin L)/Ki(calpain)<50)
[2]
  Sel cat. S: Ki(cathepsin S)/Ki(calpain) ratio: ++ (++ means a Ki(cathepsin S)/Ki(calpain) ratio of ≧100)
[1]
  Sel cat. B: Ki(cathepsin B)/Ki(calpain) ratio: + (+ means 10≦Ki(cathepsin B)/Ki(calpain)<30)

## CS(=O)(=O)NCc1cn(-c2ncccc2C(=O)NC(Cc2ccccc2)C(=O)C(N)=O)nc1-c1ccc(F)cc1 (stereo not shown) [Example 187, N-[3-Amino-2,3-dioxo-1-(phenylmethyl)propyl]-2-[3-(4-fluorophenyl)-4-{[(methylsulfonyl)amino]methyl}-1H-pyrazol-1-yl]pyridine-3-carboxamide]
[3]
  Sel cat. L: Ki(cathepsin L)/Ki(calpain) ratio: + (+ means 30≦Ki(cathepsin L)/Ki(calpain)<50)
[2]
  Sel cat. S: Ki(cathepsin S)/Ki(calpain) ratio: ++ (++ means a Ki(cathepsin S)/Ki(calpain) ratio of ≧100)

## N-{3-Amino-1-[(4-fluorophenyl)methyl]-2,3-dioxopropyl}-2-[3-(2,3-dichlorophenyl)-1H-pyrazol-1-yl]pyridine-3-carboxamide [Example 161]
[3]
  Sel cat. L: Ki(cathepsin L)/Ki(calpain) ratio: + (+ means 30≦Ki(cathepsin L)/Ki(calpain)<50)
[2]
  Sel cat. S: Ki(cathepsin S)/Ki(calpain) ratio: ++ (++ means a Ki(cathepsin S)/Ki(calpain) ratio of ≧100)
[1]
  Sel cat. B: Ki(cathepsin B)/Ki(calpain) ratio: + (+ means 10≦Ki(cathepsin B)/Ki(calpain)<30)
